Data published in patent publication US11583568B2, “Methods for administering angiotensin II” (La Jolla Pharma, LLC, priority 2017, dated 2023).
Read-outs that look alike come from different tables or passages of the source.

What was measured:
[1] = cited from earlier work
[2] = test system: patients suffering from hypotension; experiment: 28-day survival of hypotensive patients given angiotensin II or placebo, by baseline Ang I:Ang II ratio; type: in vivo, human
Protocol: The ratio of blood concentration of angiotensin I to blood concentration of angiotensin II in patients suffering from hypotension was determined and the patients were administered Angiotensin II or a placebo and their survival monitored for 28 days. In general, a low ratio of blood concentration of angiotensin I to blood concentration of angiotensin II (relative high ANG2 state) is protective across the patient population in multivariate analysis. When assessed by tertile, patients with a low ratio of blood concentration of angiotensin I to blood concentration of angiotensin II had better outcomes as assessed by a 28-day all-cause mortality as compared to high ratio of blood concentration of angiotensin I to blood concentration of angiotensin II (K-M survival curves, FIGS. 1 to 4). […] See also Table I and Table II.

CC[C@H](C)[C@H](NC(=O)[C@H](Cc1ccc(O)cc1)NC(=O)[C@@H](N)C(C)C)C(=O)N[C@@H](Cc1cnc[nH]1)C(=O)N1CCC[C@H]1C(=O)N[C@@H](Cc1ccccc1)C(=O)O [Angiotensin IV, Val-Tyr-Ile-His-Pro-Phe]
Activity relative to angiotensin II ([1]; in words): less activity than angiotensin II

Arg-Val-Tyr-Ile-His-Pro-Phe (RVYIHPF; printed: Arg-Val-Tyr-Ile-His-Pro-Phe) [Angiotensin III]
Activity relative to angiotensin II ([1]; of the activity of angiotensin II): approximately 40%

angiotensin II (DRVYIHPF; printed: Asp-Arg-Val-Tyr-Ile-His-Pro-Phe) [LJPC-501, text says patients were administered Angiotensin II or a placebo]
Mortality at Day 28, Estimate (95% CI) ([2]; Baseline Ang I:Ang II ratio <1.63, n = 70): 41.6% (31.0%-54.0%)
Mortality at Day 28, Estimate (95% CI) ([2]; Baseline Ang I:Ang II ratio ≥1.63, n = 72): 50.0% (39.1%-62.0%)
Survival of patients with elevated Ang I:Ang II ratio ([2]; Elevated ratio patients given angiotensin II, compared with patients with a lower ratio): survival becomes comparable to patients who display a lower angiotensin I to angiotensin II ratio
Treatment effect on 28-day all-cause mortality compared to control ([2]; Patients with the highest Ang I:Ang II ratio (relative low ANG2 state)): large treatment effect compared to control
HR for mortality at Day 28, within treatment group ([2]; Within treatment group, baseline Ang I:Ang II ratio <1.63 vs ≥1.63): 0.80
